Measured values published in patent US10697027B2, “Biological detection method for dioxins in serum, and diagnostic use therefor in metabolic syndrome and related conditions” (priority 2010, dated 2020).

Experiments:
[1] = tested on: HePa1c1c7 cell line expressing pCYP1A1-luc stably; assay: Response test with the transformed cell line expressing the recombinant reporter gene (luciferase assay); type: cell-based, mouse; details: for luciferase activity over the treatment time: treatment time 4, 8 (or 24) hours
Procedure: The cell line stably expressing pCYP1A1-luc constructed in Example <1-2> was distributed in 60 mm culture dish at the density of 1×10^5 cells, followed by culture for 48 hours. Upon completion of the culture, the medium was replaced with DMEM supplemented with 0.5% charcoal-stripped FBS but not supplemented with phenol red, and indole-3-carbinol was treated thereto at the concentrations of 0, 0.01, 0.1, 1, 10, and 100 μM for 4, 8, or 24 hours. Then, the cells were collected, followed by luciferase assay.
The cell line stably expressing pCYP1A1-luc constructed in Example <1-2> was distributed in 60 mm culture dish at the density of 2×10^5 cells, followed by culture for 24 hours. Upon completion of the culture, the medium was replaced with DMEM supplemented with 0.5% charcoal-stipped FBS but not supplemented with phenol red, and 2,3,7,8-tetrachlorodibenzo-p-dioxin (TCDD) was treated thereto at the concentrations of 0, 0.1, 1, 10, 100, and 1000 pM for 4, or 8 hours. Then, the cells were collected, followed by luciferase assay.

[2] = mouse treated with TCDD; cited from earlier work

SMILES	luciferase activity compared with control not treated with TCDD ([1]; 10~1000 pM, treated for 4 or 8 hours)	luciferase activity over the treatment time [1]	ATP synthesis [2]	ubiquinone (CoQ) in the liver [2]	luciferase activity compared with non-treated control group ([1]; 0.001~10 μM, treated for 4, 8 or 24 hours)	luciferase activity increase ([1]; concentration of 100 μM, treated for 4, 8 or 24 hours)
Clc1cc2c(cc1Cl)Oc1cc(Cl)c(Cl)cc1O2 [TCDD, 2,3,7,8-tetrachlorodibenzo-p-dioxin]	significantly increased	increased over the treatment time, which was not so significant	suppressed	reduced	–	–
OCc1c[nH]c2ccccc12 [indol-3-carbinol, indole-3-carbinol]	–	significant difference over the time was not detected	–	–	increased dose-dependently	at least 3 times
